Patent US12227495B2, “Herbicidal compounds” (SYNGENTA CROP PROTECTION AG, priority 2018, dated 2025)

Assays:
Type in all cases: in vivo
Details in all cases: evaluated after 13 days
[1] = tested on: Amaranthus retoflexus (AMARE); test: Pre-emergence herbicide test, glasshouse, percentage damage
In short: (§1)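 Damage was rated 13 days after spraying on a five-point scale (1=0-20% to 5=81-100%). The compound was applied at 500 g/ha unless stated otherwise, in acetone/water 50:50 plus 0.5% Tween 20, on day 1 (pre-emergence) or day 8 (post-emergence) after sowing. Plants were kept under glasshouse conditions of 24/16° C day/night and 14 h light.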

Setaria faberi (SETFA) [2] = test: as above
In short: as §1

Solanum nigrum (SOLNI) [3] = test: as above
In short: as §1

Lolium perenne (LOLPE) [4] = test: as above
In short: as §1

[5] = tested on: Ipomoea hederacea (IPOHE); test: as above
In short: as §1

[6] = tested on: Echinochloa crus-galli (ECHCG); test: as above
In short: as §1

[7] = tested on: Amaranthus retoflexus (AMARE); test: Post-emergence herbicide test, glasshouse, percentage damage
In short: as §1

Setaria faberi (SETFA) [8] = test: as above
In short: as §1

Solanum nigrum (SOLNI) [9] = test: as above
In short: as §1

Lolium perenne (LOLPE) [10] = test: as above
In short: as §1

[11] = tested on: Ipomoea hederacea (IPOHE); test: as above
In short: as §1

[12] = tested on: Echinochloa crus-galli (ECHCG); test: as above
In short: as §1

Compound: Fc1cc(Cl)cnc1Oc1cccc(Cl)c1-c1cc(C(F)F)no1 [Compound A42]
- Pre-emergence Test AMARE percentage damage (five point scale) ([1]; rate 250 g/ha): 5 (5=81-100%)
- Pre-emergence Test SETFA percentage damage (five point scale) (Setaria faberi (SETFA) [2]; rate 250 g/ha): 5 (5=81-100%)
- Pre-emergence Test SOLNI percentage damage (five point scale) (Solanum nigrum (SOLNI) [3]; rate 250 g/ha): 4 (4=61-80%)
- Pre-emergence Test LOLPE percentage damage (five point scale) (Lolium perenne (LOLPE) [4]; rate 250 g/ha): 5 (5=81-100%)
- Pre-emergence Test IPOHE percentage damage (five point scale) ([5]; rate 250 g/ha): 3 (3=41-60%)
- Pre-emergence Test ECHCG percentage damage (five point scale) ([6]; rate 250 g/ha): 5 (5=81-100%)
- percentage damage caused to the plant, AMARE ([7]; 250 g/ha): 5 (5=81-100%)
- percentage damage caused to the plant, SETFA (Setaria faberi (SETFA) [8]; 250 g/ha): 5 (5=81-100%)
- percentage damage caused to the plant, SOLNI (Solanum nigrum (SOLNI) [9]; 250 g/ha): 5 (5=81-100%)
- percentage damage caused to the plant, LOLPE (Lolium perenne (LOLPE) [10]; 250 g/ha): 5 (5=81-100%)
- percentage damage caused to the plant, IPOHE ([11]; 250 g/ha): 4 (4=61-80%)
- percentage damage caused to the plant, ECHCG ([12]; 250 g/ha): 4 (4=61-80%)

Compound: Fc1cc(Cl)cnc1Oc1ccccc1-n1cc(C(F)(F)F)nn1 [Compound A82]
- Pre-emergence Test AMARE percentage damage (five point scale) ([1]; rate 1000 g/ha): 5 (5=81-100%)
- Pre-emergence Test SETFA percentage damage (five point scale) (Setaria faberi (SETFA) [2]; rate 1000 g/ha): 5 (5=81-100%)
- Pre-emergence Test SOLNI percentage damage (five point scale) (Solanum nigrum (SOLNI) [3]; rate 1000 g/ha): 4 (4=61-80%)
- Pre-emergence Test LOLPE percentage damage (five point scale) (Lolium perenne (LOLPE) [4]; rate 1000 g/ha): 5 (5=81-100%)
- Pre-emergence Test IPOHE percentage damage (five point scale) ([5]; rate 1000 g/ha): 5 (5=81-100%)
- Pre-emergence Test ECHCG percentage damage (five point scale) ([6]; rate 1000 g/ha): 5 (5=81-100%)
- percentage damage caused to the plant, AMARE ([7]; 1000 g/ha): 5 (5=81-100%)
- percentage damage caused to the plant, SETFA (Setaria faberi (SETFA) [8]; 1000 g/ha): 5 (5=81-100%)
- percentage damage caused to the plant, SOLNI (Solanum nigrum (SOLNI) [9]; 1000 g/ha): 5 (5=81-100%)
- percentage damage caused to the plant, LOLPE (Lolium perenne (LOLPE) [10]; 1000 g/ha): 5 (5=81-100%)
- percentage damage caused to the plant, IPOHE ([11]; 1000 g/ha): 5 (5=81-100%)
- percentage damage caused to the plant, ECHCG ([12]; 1000 g/ha): 4 (4=61-80%)

Compound: FC(F)c1cc(-c2c(Cl)cccc2Oc2ccc(C(F)(F)F)cn2)on1 [Compound A110]
- Pre-emergence Test AMARE percentage damage (five point scale) ([1]; rate 1000 g/ha): 5 (5=81-100%)
- Pre-emergence Test SETFA percentage damage (five point scale) (Setaria faberi (SETFA) [2]; rate 1000 g/ha): 5 (5=81-100%)
- Pre-emergence Test SOLNI percentage damage (five point scale) (Solanum nigrum (SOLNI) [3]; rate 1000 g/ha): 4 (4=61-80%)
- Pre-emergence Test LOLPE percentage damage (five point scale) (Lolium perenne (LOLPE) [4]; rate 1000 g/ha): 4 (4=61-80%)
- Pre-emergence Test IPOHE percentage damage (five point scale) ([5]; rate 1000 g/ha): 4 (4=61-80%)
- Pre-emergence Test ECHCG percentage damage (five point scale) ([6]; rate 1000 g/ha): 4 (4=61-80%)
- percentage damage caused to the plant, AMARE ([7]; 1000 g/ha): 5 (5=81-100%)
- percentage damage caused to the plant, SETFA (Setaria faberi (SETFA) [8]; 1000 g/ha): 5 (5=81-100%)
- percentage damage caused to the plant, SOLNI (Solanum nigrum (SOLNI) [9]; 1000 g/ha): 5 (5=81-100%)
- percentage damage caused to the plant, LOLPE (Lolium perenne (LOLPE) [10]; 1000 g/ha): 4 (4=61-80%)
- percentage damage caused to the plant, IPOHE ([11]; 1000 g/ha): 4 (4=61-80%)
- percentage damage caused to the plant, ECHCG ([12]; 1000 g/ha): 4 (4=61-80%)

Compound: FC(F)c1cc(-c2c(Br)cccc2Oc2cc(C(F)(F)F)ccn2)on1 [Compound A99]
- Pre-emergence Test AMARE percentage damage (five point scale) ([1]; rate 1000 g/ha): 5 (5=81-100%)
- Pre-emergence Test SETFA percentage damage (five point scale) (Setaria faberi (SETFA) [2]; rate 1000 g/ha): 4 (4=61-80%)
- Pre-emergence Test SOLNI percentage damage (five point scale) (Solanum nigrum (SOLNI) [3]; rate 1000 g/ha): 1 (1=0-20%)
- Pre-emergence Test LOLPE percentage damage (five point scale) (Lolium perenne (LOLPE) [4]; rate 1000 g/ha): 3 (3=41-60%)
- Pre-emergence Test IPOHE percentage damage (five point scale) ([5]; rate 1000 g/ha): 1 (1=0-20%)
- Pre-emergence Test ECHCG percentage damage (five point scale) ([6]; rate 1000 g/ha): 4 (4=61-80%)
- percentage damage caused to the plant, AMARE ([7]; 1000 g/ha): 5 (5=81-100%)
- percentage damage caused to the plant, SETFA (Setaria faberi (SETFA) [8]; 1000 g/ha): 4 (4=61-80%)
- percentage damage caused to the plant, SOLNI (Solanum nigrum (SOLNI) [9]; 1000 g/ha): 4 (4=61-80%)
- percentage damage caused to the plant, LOLPE (Lolium perenne (LOLPE) [10]; 1000 g/ha): 3 (3=41-60%)
- percentage damage caused to the plant, IPOHE ([11]; 1000 g/ha): 2 (2=21-40%)
- percentage damage caused to the plant, ECHCG ([12]; 1000 g/ha): 4 (4=61-80%)

Compound: Fc1cc(Cl)cnc1Oc1c(Cl)cccc1-c1cc(C(F)F)no1 [Compound A95]
- Pre-emergence Test AMARE percentage damage (five point scale) ([1]; rate 1000 g/ha): 4 (4=61-80%)
- Pre-emergence Test SETFA percentage damage (five point scale) (Setaria faberi (SETFA) [2]; rate 1000 g/ha): 3 (3=41-60%)
- Pre-emergence Test SOLNI percentage damage (five point scale) (Solanum nigrum (SOLNI) [3]; rate 1000 g/ha): 1 (1=0-20%)
- Pre-emergence Test LOLPE percentage damage (five point scale) (Lolium perenne (LOLPE) [4]; rate 1000 g/ha): 1 (1=0-20%)
- Pre-emergence Test IPOHE percentage damage (five point scale) ([5]; rate 1000 g/ha): 1 (1=0-20%)
- Pre-emergence Test ECHCG percentage damage (five point scale) ([6]; rate 1000 g/ha): 4 (4=61-80%)
- percentage damage caused to the plant, AMARE ([7]; 1000 g/ha): 4 (4=61-80%)
- percentage damage caused to the plant, SETFA (Setaria faberi (SETFA) [8]; 1000 g/ha): 4 (4=61-80%)
- percentage damage caused to the plant, SOLNI (Solanum nigrum (SOLNI) [9]; 1000 g/ha): 4 (4=61-80%)
- percentage damage caused to the plant, LOLPE (Lolium perenne (LOLPE) [10]; 1000 g/ha): 3 (3=41-60%)
- percentage damage caused to the plant, IPOHE ([11]; 1000 g/ha): 1 (1=0-20%)
- percentage damage caused to the plant, ECHCG ([12]; 1000 g/ha): 3 (3=41-60%)

Compound: N#Cc1cc(Cl)cnc1Oc1cccc(Br)c1-c1cc(C(F)F)no1 [Compound A105]
- Pre-emergence Test AMARE percentage damage (five point scale) ([1]; rate 1000 g/ha): 5 (5=81-100%)
- Pre-emergence Test SETFA percentage damage (five point scale) (Setaria faberi (SETFA) [2]; rate 1000 g/ha): 5 (5=81-100%)
- Pre-emergence Test SOLNI percentage damage (five point scale) (Solanum nigrum (SOLNI) [3]; rate 1000 g/ha): 5 (5=81-100%)
- Pre-emergence Test LOLPE percentage damage (five point scale) (Lolium perenne (LOLPE) [4]; rate 1000 g/ha): 5 (5=81-100%)
- Pre-emergence Test IPOHE percentage damage (five point scale) ([5]; rate 1000 g/ha): 5 (5=81-100%)
- Pre-emergence Test ECHCG percentage damage (five point scale) ([6]; rate 1000 g/ha): 5 (5=81-100%)
- percentage damage caused to the plant, AMARE ([7]; 1000 g/ha): 5 (5=81-100%)
- percentage damage caused to the plant, SETFA (Setaria faberi (SETFA) [8]; 1000 g/ha): 5 (5=81-100%)
- percentage damage caused to the plant, SOLNI (Solanum nigrum (SOLNI) [9]; 1000 g/ha): 5 (5=81-100%)
- percentage damage caused to the plant, LOLPE (Lolium perenne (LOLPE) [10]; 1000 g/ha): 4 (4=61-80%)
- percentage damage caused to the plant, IPOHE ([11]; 1000 g/ha): 5 (5=81-100%)
- percentage damage caused to the plant, ECHCG ([12]; 1000 g/ha): 4 (4=61-80%)
